Laboratory results: PubChem BioAssay (NCI)
Several values for one entry are separate records, joined by “and”; a condition that tells them apart may be missing. Equal entries are not always repeated.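 How tested: cells in 96-well plates exposed to compound for 48 hours at five concentrations. At the GI50, growth is halved. TGI denotes the concentration required for complete inhibition of growth.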

Columns and labels:
Assay in all cases: DTP human tumour cell line panel, 48 h
[1] = tested on: COLO 205 colon
[2] = tested on: NCI-H226 lung
[3] = tested on: SW-620 colon
[4] = tested on: MOLT-4 leukemia
[5] = tested on: MDA-MB-435
[6] = tested on: CAKI-1 renal
[7] = tested on: UO-31 renal
[8] = tested on: SN12C renal
[9] = tested on: OVCAR-3 ovarian
[10] = tested on: ACHN renal
[11] = tested on: SK-MEL-28 melanoma

| Compound | TGI [1] | TGI [2] | TGI [3] | TGI [4] [µM] | TGI [5] | TGI [6] | TGI [7] | TGI [8] | TGI [9] | TGI [10] | TGI [11] | GI50 [1] | GI50 [6] | GI50 [7] | GI50 [9] | GI50 [10] | GI50 [11] |
| --- | --- | --- | --- | --- | --- | --- | --- | --- | --- | --- | --- | --- | --- | --- | --- | --- | --- |
| CC1=C2C(=O)NN=C2CCN1c1ccc(Br)cc1 | > 100 µM | > 100 µM | > 100 µM | > 100 | > 100 µM | > 100 µM | > 100 µM | > 100 µM | > 100 µM | > 100 µM | > 100 µM | – | – | – | – | – | – |
| NCC1CCN(c2nc3ccccc3c3c2CCCC3)CC1 | 3.13 µM | 34.1 µM | 9.34 µM | 11.7 | 7.13 µM | 21.4 µM | 11.9 µM | 22.4 µM | 24.9 µM | 25.3 µM | 12 µM | – | – | – | – | – | – |
| CC(=O)OCC1OC(OC(C)(C)CC/C=C(\C)[C@@H]2C/C=C(\C)CC/C=C(\C)CC2)C(O)C(O)C1OC(C)=O (stereo not given in full) | 76.9 µM and 32.5 µM | > 100 µM and 16.2 µM | > 31.6 µM and 50.7 µM | 49.1 | > 82.5 µM and 38.8 µM | > 100 µM and 35.3 µM | > 100 µM and 25.6 µM | > 94.1 µM and 41.2 µM | > 100 µM and 28.6 µM | > 100 µM and 26.7 µM | > 100 µM and 40.6 µM | 35.7 µM and 15.8 µM | 58.6 µM and 18.7 µM | 53.4 µM and 12.7 µM | 53.3 µM and 15.3 µM | > 65.1 µM and 13.8 µM | > 100 µM and 21.7 µM |
| Cc1nc2cccc([N+](=O)[O-])c2c(NCCCN(C)C)c1C | 39.5 µM | > 90.4 µM | > 100 µM | > 85.1 | > 100 µM | > 100 µM | > 100 µM | 16.1 µM | > 63.9 µM | > 100 µM | > 100 µM | – | – | – | – | – | – |
| CN(C)CCCOC(=O)C(c1ccccc1)C1(O)CCSCC1 (stereo not given) | > 100 µM | > 100 µM | > 100 µM | > 100 | > 100 µM | > 100 µM | > 100 µM | > 100 µM | > 100 µM | > 100 µM | > 100 µM | – | – | – | – | – | – |
| CN(CCC#N)c1ccc(/C=C2\SC(=S)NC2=O)cc1 | > 100 µM | > 100 µM | > 100 µM | > 100 | > 100 µM | > 100 µM | > 100 µM | > 100 µM | 67.9 µM | > 100 µM | > 100 µM | – | – | – | – | – | – |
| Cc1nnc(Nc2ccccc2)o1 | > 100 µM | > 100 µM | > 100 µM | > 100 | > 100 µM | > 100 µM | > 100 µM | > 100 µM | > 100 µM | > 100 µM | > 100 µM | – | – | – | – | – | – |
| O=C(NNC(=S)Nc1ccc(Cl)cc1)c1cc(-c2ccccc2)nc2ccccc12 | 18.2 µM | 28.9 µM | 18.4 µM | 27.7 | 11.4 µM | 20.6 µM | 18.1 µM | 21.4 µM | 8.91 µM | 22.7 µM | 14.1 µM | – | – | – | – | – | – |
| NC(=O)N/N=C(\Cc1nc2ccc(Cl)cc2[nH]c1=O)C(=O)Nc1ccc(Cl)cc1Cl | > 100 µM | > 100 µM | > 100 µM | > 100 | > 100 µM | > 100 µM | > 100 µM | > 100 µM | > 100 µM | > 100 µM | > 100 µM | – | – | – | – | – | – |
